According to patent US8481524B2, “c-MET protein kinase inhibitors” (Vertex Pharmaceuticals Incorporated, priority 2007, dated 2013):
“Also recorded” adds a separate entry of the source.

System: c-Met in Snu5 gastric carcinoma cells
Assay: Inhibition of c-Met activity in Snu5 gastric carcinoma cells (Snu5-AP1-Luc-Pest luciferase signal)
Type: cell-based, human
Details: for IC50: Homo sapiens, SNU-5, Snu5-AP1-Luc-Pest cells, 6 hours, Steady Glo luminescence; for activity compared with corresponding analog wherein R5 is hydrogen: Snu5 gastric carcinoma cell assay, comparison of IC50 values
Source text: Compounds of the invention were also screened for their ability to inhibit the Luciferase-induced signal in an engineered Snu5 cell line. Snu5 [obtained from American Type Culture Collection (Catalog number CRL-5973)] is a human gastric carcinoma known to overexpress c-Met, which is constitutively active. The cell line was transduced with the retrovirus, pCLPCX, which contains a genetic construct consisting of 6×AP1 promoter response elements and a luciferase gene having a C-terminal PEST sequence (proteolytic signal from mouse ornithine decarboxylase, which reduces the half-life of the luciferase). The constitutively active cMet activates cellular pathways (principally MAP kinase), resulting in AP-1-induced transcription of luciferase-PEST and translation into the final product, the activity of which is quantifiable as a chemiluminescent readout upon the addition of luciferin (Steady-Glo from Promega.). Residual luminescence is strongly correlated to the inhibition of c-Met. A stable cell line was obtained by selecting the new cell line (Snu5-AP1-Luc-Pest) with puromycin. The cells were grown in complete media [Iscove's media (Invitrogen) containing 10% fetal bovine serum (FBS, Hyclone) and penicillin/gentamycin (Invitrogen)]. Compounds of the invention were dissolved in DMSO to make 10 mM initial stock solutions. Serial dilutions in DMSO were then made and transferred to complete medium to make a 10× solution. The Snu5-AP1-Luc-Pest cells were counted and diluted to 200,000-cells/mL solution. The cells (90 μL) were added to each well in a 96-well black with clear bottom plate (Costar). Then 10 μL of the 10× compound solution was added to the cells in triplicate. The plates were incubated in a 37° C./5% CO2 incubator. After 6 hours, 50 μL of the Steady Glo reagent (Promega) was added to each well and placed on a plate shaker for 5 minutes to ensure that the cells were completely lysed. The plate was read on a 1450 Microbeta Liquid Scintillation and Luminescence Counter (Perkin-Elmer). The IC50s were calculated using a 4-parameter fit using the graphing software Prism (GraphPad).

Structure (SMILES): Cc1ccc(-n2nnnc2-c2cc(-c3cnn([C@@H]4CCNC4)c3)cnc2N)c(F)c1F [Compound 1]
- IC50: 100 to 1000 nM
- activity compared with corresponding analog wherein R5 is hydrogen: more active

Structure (SMILES): Cc1ccc(-n2nnnc2-c2cc(-c3cnn([C@@H]4CCCNC4)c3)cnc2N)c(F)c1F [Compound 2]
- IC50: ≤ 100 nM
- activity compared with corresponding analog wherein R5 is hydrogen: more active

Structure (SMILES): Cc1ccc(-n2nnnc2-c2cc(-c3cnn(C4CCCNCC4)c3)cnc2N)c(F)c1F (stereo not shown) [Compound 3]
- IC50: ≤ 100 nM
- activity compared with corresponding analog wherein R5 is hydrogen: more active

Structure (SMILES): COc1ccc(-n2nnnc2-c2cc(-c3cnn([C@@H]4CCNC4)c3)cnc2N)c(F)c1F [Compound 4]
- IC50: ≤ 100 nM
- activity compared with corresponding analog wherein R5 is hydrogen: more active

Structure (SMILES): Cc1ccc(-n2nnnc2-c2cc(-c3cnn([C@H]4CCCNC4)c3)cnc2N)c(F)c1F [Compound 5]
- IC50: ≤ 100 nM
- activity compared with corresponding analog wherein R5 is hydrogen: more active

Structure (SMILES): COc1ccc(-n2nnnc2-c2cc(-c3cnn([C@H]4CCNC4)c3)cnc2N)c(F)c1F [Compound 6]
- IC50: ≤ 100 nM
- activity compared with corresponding analog wherein R5 is hydrogen: more active

Structure (SMILES): Cc1ccc(-n2nnnc2-c2cc(-c3cnn([C@H]4CCNC4)c3)cnc2N)c(F)c1F [Compound 7]
- IC50: 100 to 1000 nM
- activity compared with corresponding analog wherein R5 is hydrogen: more active

Structure (SMILES): COc1ccc(-n2nnnc2-c2cc(-c3cnn([C@@H]4CCCNC4)c3)cnc2N)c(F)c1F [Compound 8, 3-(1-(2,3-Difluoro-4-methoxyphenyl)-1H-tetrazol-5-yl)-5-(1-((R)-piperidin-3-yl)-1H-pyrazol-4-yl)pyridin-2-amine]
- IC50: ≤ 100 nM
- activity compared with corresponding analog wherein R5 is hydrogen: more active

Structure (SMILES): COc1ccc(-n2nnnc2-c2cc(-c3cnn(C4CCCNCC4)c3)cnc2N)c(F)c1F (stereo not shown) [Compound 9]
- IC50: 100 to 1000 nM

Structure (SMILES): COc1ccc(-n2nnnc2-c2cc(-c3cnn([C@H]4CCCNC4)c3)cnc2N)c(F)c1F [Compound 10]
- IC50: ≤ 100 nM
- activity compared with corresponding analog wherein R5 is hydrogen: more active

Structure (SMILES): Cc1ccc(-n2nnnc2-c2cc(-c3cnn(C4CCNCC4)c3)cnc2N)c(F)c1F [Compound 11, 3-(1-(2,3-Difluoro-4-methylphenyl)-1H-tetrazol-5-yl)-5-(1-(piperidin-4-yl)-1H-pyrazol-4-yl)pyridin-2-amine]
- IC50: 100 to 1000 nM
- activity compared with corresponding analog wherein R5 is hydrogen: more active

Structure (SMILES): COc1ccc(-n2nnnc2-c2cc(-c3cnn(C4CCNCC4)c3)cnc2N)c(F)c1F [Compound 12, 3-(1-(2,3-difluoro-4-methoxyphenyl)-1H-tetrazol-5-yl)-5-(1-(piperidin-4-yl)-1H-pyrazol-4-yl)pyridin-2-amine]
- IC50: 100 to 1000 nM
- activity compared with corresponding analog wherein R5 is hydrogen: more active

Structure (SMILES): Cc1ccc(-n2nnnc2-c2cc(-c3cc4c(s3)CCNCC4)cnc2N)c(F)c1F [Compound 13, 3-(1-(2,3-Difluoro-4-methylphenyl)-1H-tetrazol-5-yl)-5-(5,6,7,8-tetrahydro-4H-thieno[2,3-d]azepin-2-yl)pyridin-2-amine]
- IC50: ≤ 100 nM
- activity compared with corresponding analog wherein R5 is hydrogen: more active

Structure (SMILES): COc1ccc(-n2nnnc2-c2cc(-c3cc4c(s3)CCNCC4C)cnc2N)c(F)c1F (stereo not shown) [Compound 14]
- IC50: ≤ 100 nM
- activity compared with corresponding analog wherein R5 is hydrogen: more active

Structure (SMILES): COc1ccc(-n2nnnc2-c2cc(-c3cc4c(s3)CCNCC4)cnc2N)c(F)c1F [Compound 15]
- IC50: ≤ 100 nM
- activity compared with corresponding analog wherein R5 is hydrogen: more active

Structure (SMILES): COc1ccc(-n2nnnc2-c2cc(-c3cnn(C4CC5CCC(C4)N5)c3)cnc2N)c(F)c1F (stereo not shown) [Compound 16]
- IC50: ≤ 100 nM
- activity compared with corresponding analog wherein R5 is hydrogen: more active

Structure (SMILES): COc1ccc(-n2nnnc2-c2cc(-c3cnn(C4CC5CCC(C4)N5)c3)cnc2N)c(F)c1F (stereo not shown) [Compound 17]
- activity compared with corresponding analog wherein R5 is hydrogen: more active

Structure (SMILES): COc1ccc(-n2nnnc2-c2cc(-c3cn(C4CCNCC4)nc3C)cnc2N)c(F)c1F [Compound 18]
- IC50: ≤ 100 nM
- activity compared with corresponding analog wherein R5 is hydrogen: more active

Structure (SMILES): CCC1Cc2sc(-c3cnc(N)c(-c4nnnn4-c4ccc(OC)c(F)c4F)c3)cc2CCN1 (stereo not shown) [Compound 19]
- IC50: ≤ 100 nM
- activity compared with corresponding analog wherein R5 is hydrogen: more active

Structure (SMILES): COc1ccc(-n2nnnc2-c2cc(-c3cc4c(s3)CNCCC4)cnc2N)c(F)c1F [Compound 20]
- IC50: 100 to 1000 nM

Structure (SMILES): COc1ccc(-n2nnnc2-c2cc(-c3cc4c(s3)CCCNC4)cnc2N)c(F)c1F [Compound 21]
- IC50: 100 to 1000 nM
- activity compared with corresponding analog wherein R5 is hydrogen: more active

Structure (SMILES): COc1ccc(-n2nnnc2-c2cc(-c3cc(C)c(C4CCNCC4)s3)cnc2N)c(F)c1F [Compound 22, 3-(1-(2,3-Difluoro-4-methoxyphenyl)-1H-tetrazol-5-yl)-5-(4-methyl-5-(piperidin-4-yl)thiophen-2-yl)pyridin-2-amine]
- IC50: ≤ 100 nM
- activity compared with corresponding analog wherein R5 is hydrogen: more active

Structure (SMILES): CCCOc1ccc(-n2nnnc2-c2cc(-c3cc4c(s3)CCNCC4)cnc2N)c(F)c1F [Compound 23]
- IC50: ≤ 100 nM

Structure (SMILES): Cc1cc(-c2cnc(N)c(-c3nnnn3-c3ccc(C)c(F)c3F)c2)sc1C1CCNCC1 [Compound 24]
- IC50: ≤ 100 nM
- activity compared with corresponding analog wherein R5 is hydrogen: more active

Structure (SMILES): CCOc1ccc(-n2nnnc2-c2cc(-c3cnn(C4CCNCC4)c3)cnc2N)c(F)c1F [Compound 25]
- IC50: ≤ 100 nM

Structure (SMILES): CC(C)Oc1ccc(-n2nnnc2-c2cc(-c3cnn(C4CCNCC4)c3)cnc2N)c(F)c1F [Compound 26]
- IC50: ≤ 100 nM

Structure (SMILES): COc1ccc(-n2nnnc2-c2cc(-c3cc4c(s3)CCNC(C)C4)cnc2N)c(F)c1F (stereo not shown) [Compound 27]
- IC50: ≤ 100 nM
- activity compared with corresponding analog wherein R5 is hydrogen: more active

Structure (SMILES): Cc1ccc(-n2nnnc2-c2cc(-c3cc4c(s3)CCNC(C)C4)cnc2N)c(F)c1F (stereo not shown) [Compound 28]
- IC50: ≤ 100 nM
- activity compared with corresponding analog wherein R5 is hydrogen: more active

Structure (SMILES): COc1ccc(-n2nnnc2-c2cc(-c3cc4c(s3)CCNCC4(C)C)cnc2N)c(F)c1F [Compound 29]
- IC50: ≤ 100 nM
- activity compared with corresponding analog wherein R5 is hydrogen: more active

Structure (SMILES): Cc1ccc(-n2nnnc2-c2cc(-c3cc4c(s3)CCNCC4(C)C)cnc2N)c(F)c1F [Compound 30]
- IC50: ≤ 100 nM
- activity compared with corresponding analog wherein R5 is hydrogen: more active

Structure (SMILES): Cc1cc(C2CCNCC2)sc1-c1cnc(N)c(-c2nnnn2-c2ccc(C)c(F)c2F)c1 [Compound 31]
- IC50: 100 to 1000 nM
- activity compared with corresponding analog wherein R5 is hydrogen: more active; also recorded: the unsubstituted compound has a lower IC50 value

Structure (SMILES): COc1ccc(-n2nnnc2-c2cc(-c3sc(C4CCNCC4)cc3C)cnc2N)c(F)c1F [Compound 32]
- IC50: ≤ 100 nM
- activity compared with corresponding analog wherein R5 is hydrogen: more active

Structure (SMILES): CC(C)Oc1ccc(-n2nnnc2-c2cc(-c3cc4c(s3)CCNCC4)cnc2N)c(F)c1F [Compound 33]
- IC50: ≤ 100 nM

Structure (SMILES): CCCOc1ccc(-n2nnnc2-c2cc(-c3cnn(C4CCNCC4)c3)cnc2N)c(F)c1F [Compound 34]
- IC50: ≤ 100 nM

Structure (SMILES): COCCOc1ccc(-n2nnnc2-c2cc(-c3cnn(C4CCNCC4)c3)cnc2N)c(F)c1F [Compound 35]
- IC50: 100 to 1000 nM

Structure (SMILES): COc1ccc(-n2nnnc2-c2cc(-c3cn(C4CCNCC4)nc3C(F)(F)F)cnc2N)c(F)c1F [Compound 36]
- IC50: ≤ 100 nM
- activity compared with corresponding analog wherein R5 is hydrogen: more active

Structure (SMILES): COc1cc(F)c(-n2nnnc2-c2cc(-c3cnn(C4CCNCC4)c3)cnc2N)c(F)c1 [Compound 37]
- IC50: ≤ 100 nM

Structure (SMILES): Cc1ccc(-n2nnnc2-c2cc(-c3cnn(C4CCNCC4)c3)cnc2N)c(Cl)c1 [Compound 38]
- IC50: 100 to 1000 nM

Structure (SMILES): Cc1ccc(-n2nnnc2-c2cc(-c3cc4c(s3)CCNCC4)cnc2N)c(Cl)c1 [Compound 39]
- IC50: 100 to 1000 nM

Structure (SMILES): Cc1ccc(-n2nnnc2-c2cc(-c3cnn(C4CCNCC4)c3)cnc2N)cc1Cl [Compound 40]
- IC50: > 1000 nM

Structure (SMILES): Cc1ccc(-n2nnnc2-c2cc(-c3cnn(C4CCNCC4)c3)cnc2N)c(F)c1 [Compound 41]
- IC50: 100 to 1000 nM

Structure (SMILES): Cc1ccc(-n2nnnc2-c2cc(-c3cc4c(s3)CCNCC4)cnc2N)c(F)c1 [Compound 42]
- IC50: 100 to 1000 nM

Structure (SMILES): Cc1ccc(-n2nnnc2-c2cc(-c3cnn(C4CCNCC4)c3)cnc2N)cc1F [Compound 43]
- IC50: 100 to 1000 nM

Structure (SMILES): COc1ccc(-n2nnnc2-c2cc(-c3cn(C4CCCNCC4)nc3C)cnc2N)c(F)c1F (stereo not shown) [Compound 44]
- IC50: ≤ 100 nM

Structure (SMILES): Cc1ccc(-n2nnnc2-c2cc(-c3cn(C4CCNCC4)nc3C)cnc2N)c(F)c1F [Compound 45]
- IC50: ≤ 100 nM

Structure (SMILES): Cc1ccc(-n2nnnc2-c2cc(-c3cn(C4CCCNCC4)nc3C)cnc2N)c(F)c1F (stereo not shown) [Compound 46]
- IC50: ≤ 100 nM

Structure (SMILES): Cc1ccc(-n2nnnc2-c2cc(-c3cn(C4CCNCC4)nc3C(F)(F)F)cnc2N)c(F)c1F [Compound 47]
- IC50: 100 to 1000 nM

Structure (SMILES): Cc1ccc(-n2nnnc2-c2cc(-c3cnn(C4C[C@H]5CNC[C@H]5C4)c3)cnc2N)c(F)c1F (stereo partly shown) [Compound 48]
- IC50: 100 to 1000 nM

Structure (SMILES): COc1ccc(-n2nnnc2-c2cc(-c3cnn(C4CCNCC4)c3)cnc2N)c(F)c1 [Compound 50]
- IC50: 100 to 1000 nM
